According to patent publication US20170021014A1, “VACCINE ADJUVANTS FOR CYTOMEGALOVIRUS PREVENTION AND TREATMENT” (THE JOHNS HOPKINS UNIVERSITY, priority 2015, published 2017):

Columns and labels:
[1] = system: HCMV proteins (IE1/2, pp65); assay: Western blot of HCMV proteins in infected HFFs; assay type: cell-based, human cytomegalovirus
Procedure: (§1) Cell lysates containing equivalent amount of proteins were mixed with an equal volume of sample buffer (125 mM Tris-HCL, pH 6.8, 4% SDS, 20% glycerol and 5% β-mercaptoethanol) and boiled at 100° C. for 10 min. Denatured proteins were resolved in Tris-glycine polyacrylamide gels (10-12%) and transferred to polyvinylidine difluoride (PVDF) membranes (Bio-Rad Laboratories, Hercules, Calif.) by electroblotting. Membranes were incubated in blocking solution [5% w/v non-fat dry milk and 0.1% Tween-20 in PBS (PBST)] for 1 h, washed with PBST, and incubated with antibody at 4° C. overnight. Membranes were washed with PBST and incubated with horseradish peroxidase-conjugated secondary antibodies in PBST for 1 h at room temperature. Following washing with PBST, protein bands were visualized by chemiluminescence using SuperSignal West Dura and Pico reagents (Pierce Chemical, Rockford, Ill.). Antibodies for HCMV proteins were used at 1:2000 and included: mouse monoclonal anti-HCMV IE1 & IE2 (MAB810, Millipore, Billerica, Mass.), mouse monoclonal anti-HCMV UL83 (pp65, Vector Laboratories Inc., Burlingame, Calif.), and mouse monoclonal anti-pp52 (UL44, Santa Cruz Biotechnology, Santa Cruz, Calif.). Rabbit polyclonal anti human-NOD2 antibody (H-300, 1:2000), rabbit polyclonal anti-RIPK2 (1:5000), mouse monoclonal anti-NF-KB (p65, 1:1000), rabbit polyclonal anti-IRF3 (1:1000) and mouse monoclonal anti-IRF7 (1:1000) were from Santa Cruz. Rabbit monoclonal anti-Histone H3 (1:2000), rabbit monoclonal anti-pERK1/2 (1:5000), mouse monoclonal anti-total ERK (1:2000), rabbit monoclonal anti-pIκBα (1:2000), mouse monoclonal anti-IκBα, rabbit monoclonal anti-pTBK1 (Ser172), and rabbit monoclonal anti-TBK1 (1:1000) were from Cell Signaling Technology, Beverly, Mass. Horseradish peroxidase (HRP)-conjugated anti-rabbit IgG was from Cell Signaling. […]
Quantitative analysis of proteins detected by immunoblotting was performed using ImageJ 1.48v software (NIH) by determining relative band intensities of individual bands. […]

IL8 mRNA = assay: qRT-PCR of IL8 mRNA in HFFs; assay type: cell-based, Human
Procedure: (§2) Total RNA was isolated from cells using RNAeasy Mini kit (Qiagen, Georgetown, Md.) according to manufacturer's instructions. RevertAid first strand cDNA synthesis kit (Fermentas life sciences, Cromwell Park, Md.) was used to synthesize first strand cDNA from total RNA using oligo-dT primers. Negative reverse-transcriptase (−RT) reactions were included to ensure the specificity of qRT-PCR reactions. Synthesis of first strand cDNA from mRNA template was carried out at 42° C. for 1 h. Quantitative RT-PCR was performed using specific primers and SYBR green (Fermentas life science) with two-step cycling protocol (95° C. for 15 s, 60° C. for 1 min). All reactions were performed in triplicates and GAPDH was used as internal control. The expression level of the tested genes was normalized to the expression of GAPDH.

IFN-β mRNA = assay: qRT-PCR of IFN-β mRNA in HFFs; assay type: cell-based, Human
Procedure: as §2

[2] = system: TANK-binding kinase (TBK1); assay: Western blot of NOD2 downstream signaling proteins; assay type: cell-based, Human; conditions: HCMV-infected, MOI 0.1, MDP treatment, 36 hpi
Procedure: as §1, with “Calif.).” for “Calif.). Rabbit polyclonal anti human-NOD2 antibody (H-300, 1:2000), rabbit polyclonal anti-RIPK2 (1:5000), mouse monoclonal anti-NF-KB (p65, 1:1000), rabbit polyclonal anti-IRF3 (1:1000) and mouse monoclonal anti-IRF7 (1:1000) were from Santa Cruz. Rabbit monoclonal anti-Histone H3 (1:2000), rabbit monoclonal anti-pERK1/2 (1:5000), mouse monoclonal anti-total ERK (1:2000), rabbit monoclonal anti-pIκBα (1:2000), mouse monoclonal anti-IκBα, rabbit monoclonal anti-pTBK1 (Ser172), and rabbit monoclonal anti-TBK1 (1:1000) were from Cell Signaling Technology, Beverly, Mass. Horseradish peroxidase (HRP)-conjugated anti-rabbit IgG was from Cell Signaling.”

clinical isolate of HCMV = assay: Immunofluorescence staining for HCMV IE1/2; assay type: cell-based, human cytomegalovirus; conditions: GIPZ HFFs, MDP pretreatment 72 h, infected 24 h, MOI 1
Procedure: GIPZ control and shIFN-β HFFs were seeded into 96-well plate (1×10^4 cells/well) and pretreated with MDP (10 μg/mL) for 72 h. Cells were then infected with a clinical isolate of HCMV at MOI 1. Twenty-four hours after infection, cells were fixed with methanol/acetone (1:1) at −20° C. for 10 min. Cells were then blocked with 7.5% BSA for 30 min. and incubated for 1 h with anti-human CMV IE1&2 antibody (MAB810) (1:500 in 0.5% BSA). After 3 washes with PBS, cells were incubated with FITC-anti mouse antibody (F8521, Sigma, 1:500, in 0.5% BSA) for 1 h. Then cells were washed 3 times with PBS and counterstained with propidium iodide (Invitrogen) for nuclear staining. Images were taken using Nikon Eclipse TS100 microscope.

HFFs = assay: MTT cell viability assay; assay type: cell-based, Human
Procedure: MTT assay (Sigma-Aldrich) was performed to rule out any cytotoxicity induced by MDP treatment. Cells (HFFs and transduced GIPZ/shIFNβ-HFFs as described below) were pretreated with MDP for 96- and 72 h, respectively and 20 μl/well of MTT [3-(4, 5-Dimethyl-2-thiazolyl)-2, 5-diphenyl-2H-tetrazolim bromide, 5 mg/mL in phosphate buffered saline (PBS)] was added to each well. After shaking plates at 150 rpm for 5 minutes the plates were incubated at 37° C. for 3 hours. Conversion of yellow solution to dark blue formazan by mitochondrial dehydrogenases of living cells was quantified by measuring absorbance at 560 nm.

[3] = HCMV-infected, MDP treatment, 4 hpi

SMILES: CC(=O)N[C@H]1C(O)O[C@H](CO)[C@@H](O)[C@@H]1O[C@H](C)C(=O)N[C@@H](C)C(=O)N[C@H](CCC(=O)O)C(N)=O (mixture of isomers) [MDP, Muramyl dipeptide]
- decrease in pp65 expression ([1]; MDP treatment after infection, MOI 0.1, 96 hpi): approximately 75%
- reduction in pp65 expression ([1]; MDP treatment after infection, higher MOI (MOI 1), 96 hpi): 40%
- HCMV replication, dose response ([1]; MOI 0.1, IE1/2 and pp65 expression after 4 days): suppressed HCMV replication (MOI 0.1) in a dose-dependent manner
- increase in IL8 mRNA (IL8 mRNA; [3]): 2 fold
- further increase of IL8 mRNA (IL8 mRNA; MDP after infection compared to MDP or HCMV alone, irrespective of MOI): 6-7 fold
- IL8 expression induction (IL8 mRNA; MDP alone, non-infected, 36 h): 3 fold
- IL8 expression (IL8 mRNA; MDP pretreatment 72 h, non-infected or HCMV-infected): modestly induced
- increase in IFN-β mRNA (IFN-β mRNA; [3]): 2 fold
- induction of IFN-β mRNA (IFN-β mRNA; MDP after infection at MOI 0.1, 36 hpi (infection only 15-fold)): 170 fold
- induction of IFN-β mRNA (IFN-β mRNA; MDP after infection at MOI 1, 36 hpi (infection only 300-fold)): 800 fold
- IFN-β expression induction (IFN-β mRNA; MDP alone, compared to non-infected cells, 36 h): 4 fold
- IFN-β mRNA (IFN-β mRNA; MDP pretreatment 72 h then HCMV MOI 1 for 24 h): significant induction
- IFN-β mRNA (IFN-β mRNA; non-infected HFFs, MDP pretreatment 72 h): did not result in IFN-β induction
- phosphorylation of TBK1 [2]: increased phosphorylation
- nuclear IE1/2 expression (clinical isolate of HCMV): reduced IE1/2 expression
- cellular toxicity (MTT) (HFFs; HFFs treated 96 h): no toxicity at any of the concentrations used
- toxicity / cell growth (MTT) (HFFs; control GIPZ or shIFN-β KD HFFs, MDP 10 μg/mL 72 h): No toxicity or difference in cell growth
